T1: human occludin (human, UniProt Q16625 1-522)
T1 sequence: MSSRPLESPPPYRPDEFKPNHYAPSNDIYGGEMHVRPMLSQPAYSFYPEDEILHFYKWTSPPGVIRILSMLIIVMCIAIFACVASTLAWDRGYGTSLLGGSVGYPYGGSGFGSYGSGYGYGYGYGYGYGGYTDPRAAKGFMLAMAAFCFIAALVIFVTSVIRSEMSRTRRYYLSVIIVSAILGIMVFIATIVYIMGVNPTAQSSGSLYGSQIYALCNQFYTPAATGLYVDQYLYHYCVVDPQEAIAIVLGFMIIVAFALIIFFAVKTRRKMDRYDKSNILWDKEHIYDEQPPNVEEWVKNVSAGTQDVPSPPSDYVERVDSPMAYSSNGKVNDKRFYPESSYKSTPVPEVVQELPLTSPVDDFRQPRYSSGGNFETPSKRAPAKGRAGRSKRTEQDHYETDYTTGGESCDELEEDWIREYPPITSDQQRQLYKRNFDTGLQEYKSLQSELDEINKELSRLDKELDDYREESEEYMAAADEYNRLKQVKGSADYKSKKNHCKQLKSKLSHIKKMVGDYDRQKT

B1: peptide #1 (N-terminal half of occludin extracellular loop #1) (peptide)
peptide: CDRGYGTSLLGGSVGYPYGGSGFG

What was measured:
[1] = tested on: occludin-transfected fibroblasts (NRK cell clone, N2occ cells); assay: Cell adhesion (suspended cell aggregation) assay, occludin-transfected NRK fibroblasts (N2occ); format: cell-based, rat; conditions: for inhibition of occludin-induced adhesion: NRK cell clone, peptide at 100 μM, 80 minutes
Method: Peptides were added in equal volumes of PBS at the start of the incubation period; extent of aggregation is shown after 80 minutes of incubation. Loop peptides represent contiguous sequences in the first extracellular loop; the internal peptide has the same pI as loop peptide #1. Peptide sequences are given in the Examples section. One of three experiments with identical results is shown.
For immunofluorescent localization studies, cells were grown on glass coverslips. […] MDCK cells were transfected and induced with sodium butyrate as described above and stable cells lines were plated and induced as described for immunoblots. Cells were washed with PBS, fixed in 1% paraformaldehyde in PBS, extracted with 0.1% Triton-X 100 and quenched with 50 mM NH4Cl in PBS. In experiments to test the accessibility to the anti-peptide #1 antibody, incubation of the primary antibody was performed without permeabilization of cells with Triton-X 100. Cells were blocked for 1 hour in PBS plus 2% goat serum, incubated in primary antibodies (anti-VSV-G at 10 ug/ml, guinea pig anti-occludin at 1:250, and anti-ZO-1 at 1:300; affinity-purified anti-peptide #1 antibody at 1:10) for 1 hour, washed and incubated in affinity-purified secondary antibodies (1:100) for 1 hour. Cells were washed, dipped in H2O and mounted in Vectashield (Vector Laboratories). The samples were examined with a Nikon Microfot-FX epifluorescence microscope; photographs were taken with TMAX400 film (Kodak, Rochester, NY) using the automatic exposure setting. Cell Adhesion Assay Adhesion of stably transfected cell lines was measured by a modification of the procedure described by Wesseling, J., et al., Mol. Biol. Cell 7:565-577 (1996). Cell lines were plated and induced with sodium butyrate as described above. Cell layers were rinsed twice with Ca^2+-Mg^2+-free PBS and then incubated for 30 minutes in Ca^2+-Mg^2+-free PBS plus 1 mM EDTA and 0.1 mg/ml DNAse. After 30 minutes, cells were mechanically dissociated, counted and resuspended at a concentration of 2.5×10^5 cells/ml in Ca^2+-Mg^2+-free PBS, 1 mM EDTA and 0.1 mg/ml DNAse. For each condition, the adhesion assay was performed in duplicate in two 50-ml conical tubes on a rotating platform at 80 rpm at 25° C. At each time point, the number of particles in two 175 ul aliquot of each tube was determined in a Coulter Counter (Hialeah, FL). The amount of adhesion was represented by Nt/N0, where N0 was the initial number of particles in each sample (the starting number of single cells), and Nt was the number at each time point. 100% of cells were single at the beginning of all assays, as determined by phase-contrast microscopy. Some experiments were performed in the presence of the peptides described above.
The ability of transfected occludin to confer adhesion onto fibroblast cell lines was assessed using a suspended cell aggregation assay (Wesseling, J., et al., Mol. Biol. Cell 7: 565-577 (1996)). All cells were counted as single particles at the beginning of the assay and any decrease in the fraction of particles over the 80 minute assay was the result of aggregates which are excluded by the Coulter Counter. Aggregation was qualitatively confirmed by light microscopic inspection and correlated with results quantified by the Coulter Counter. Immunofluorescence confirmed that ZO-1 and occludin are clustered between adherent cells after the 80 minute assay. […]

[2] = tested on: occludin-transfected fibroblasts (Rat-1 cell clone); assay: Cell adhesion (suspended cell aggregation) assay, occludin-transfected Rat-1 fibroblasts; format: cell-based; conditions: peptide at 100 μM
Method: For immunofluorescent localization studies, cells were grown on glass coverslips. […] MDCK cells were transfected and induced with sodium butyrate as described above and stable cells lines were plated and induced as described for immunoblots. Cells were washed with PBS, fixed in 1% paraformaldehyde in PBS, extracted with 0.1% Triton-X 100 and quenched with 50 mM NH4Cl in PBS. In experiments to test the accessibility to the anti-peptide #1 antibody, incubation of the primary antibody was performed without permeabilization of cells with Triton-X 100. […] Cell Adhesion Assay Adhesion of stably transfected cell lines was measured by a modification of the procedure described by Wesseling, J., et al., Mol. Biol. Cell 7:565-577 (1996). […] After 30 minutes, cells were mechanically dissociated, counted and resuspended at a concentration of 2.5×10^5 cells/ml in Ca^2+-Mg^2+-free PBS, 1 mM EDTA and 0.1 mg/ml DNAse. […] At each time point, the number of particles in two 175 ul aliquot of each tube was determined in a Coulter Counter (Hialeah, FL). […] 100% of cells were single at the beginning of all assays, as determined by phase-contrast microscopy. […]
The ability of transfected occludin to confer adhesion onto fibroblast cell lines was assessed using a suspended cell aggregation assay (Wesseling, J., et al., Mol. Biol. Cell 7: 565-577 (1996)). […]

Caco-2 cells = assay: Transepithelial electrical resistance of Caco-2 monolayers after low calcium medium; format: cell-based, human; conditions: Caco-2, peptides at final concentration 100 μM, FIG. 2
Method: FIG. 2 is a graph showing inhibition of occludin-dependent intercellular adhesion using extracellular loop peptides corresponding to the N-terminal half of occludin extracellular loop #1 (peptide 1, SEQ ID NO 3) and the C-terminal half of extracellular loop #1 (peptide 2, SEQ ID NO 4) compared with an irrelevant peptide (peptide 3, SEQ ID NO 6). Caco-2 cells were plated on Falcon transwell cell culture inserts in DMEM supplemented with 10% fetal bovine serum and allowed to attach for 24 hours. Confluent monolayers were washed three times with calcium- and magnesium-free phosphate buffered saline and incubated in low calcium medium (supplemented with 5% dialyzed fetal bovine serum) for 24 hours. Transepithelial electrical ressitance was measured (time 0) and an equal volume of 2× DMEM/20% fetal bovine serum was added to all wells. To some wells, peptides were added with the fresh media. All peptides were added to a final concentration of 100 μM; transepithelial electrical resistance was measured in 3 wells of each treatment condition. Symbols represent the mean and standard deviation of each measurement.
Introduction of occludin into fibroblasts causes them to become adhesive. […] FIG. 2 provides data showing this same peptide inhibits transmonolayer electrical resistance in cultured human colonic epithelial cells. Thus, the peptides are occludin inhibitors.

human occludin = target: T1, human occludin; assay: cell-based or functional assay

| apparent Ki for inhibition of occludin-induced adhesion (human occludin) [µM] | Molecule | inhibition of occludin-induced adhesion [1] | reversal of adhesion ([1]; peptide at 10 μM) | inhibition of occludin-induced adhesion [2] | inhibition of transepithelial (transmonolayer) electrical resistance (Caco-2 cells) | Ki ([1]; fibroblast adhesion assay, peptides tested at 1, 10 and 100 μM, read-out: apparent Ki (inhibition of adhesion)) [µM] | inhibiting occludin-dependent cell adhesion ([1]; same concentration range (1, 10 and 100 μM)) |
| --- | --- | --- | --- | --- | --- | --- | --- |
| – | CDRGYGTSLLGGSVGYPYGGSGFG [peptide #1] | completely inhibited adhesion | approximately half | completely inhibited adhesion | inhibition | – | – |
| – | CSYGSGYGYGYGYGYGYGGYTDPR [peptide #2] | completely inhibited adhesion | – | completely inhibited adhesion | inhibition | 10 to 100 | – |
| – | NHYAPSNDIYGGEMVHRPML (peptide construct used in experiments) [internal occludin peptide, reference compound] | – | – | – | – | – | ineffective |
| ~10 | B1 | – | – | – | – | – | – |
